How the values were obtained:
PP4 holoenzyme = PP4 holoenzyme (Homo sapiens, UniProt P60510); conditions: 100 uM DiFMUP; pH 7.4, 30 C; Mg2+ from enzyme buffer
PP6 holoenzyme = PP6 holoenzyme (Homo sapiens, UniProt O00743); conditions: 100 uM DiFMUP; pH 7.4, 30 C; Mg2+ from enzyme buffer
Chain of PP6 holoenzyme (O00743 whole entry): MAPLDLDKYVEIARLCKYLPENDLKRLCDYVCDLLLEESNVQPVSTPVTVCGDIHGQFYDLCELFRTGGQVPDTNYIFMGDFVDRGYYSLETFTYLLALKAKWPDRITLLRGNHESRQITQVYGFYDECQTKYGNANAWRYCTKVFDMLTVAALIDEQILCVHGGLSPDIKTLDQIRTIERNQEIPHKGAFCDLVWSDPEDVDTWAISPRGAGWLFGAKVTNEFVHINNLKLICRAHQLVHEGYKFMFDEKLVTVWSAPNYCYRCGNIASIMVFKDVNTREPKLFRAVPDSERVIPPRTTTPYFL
Chain of PP6 holoenzyme (Q9UPN7 whole entry partner): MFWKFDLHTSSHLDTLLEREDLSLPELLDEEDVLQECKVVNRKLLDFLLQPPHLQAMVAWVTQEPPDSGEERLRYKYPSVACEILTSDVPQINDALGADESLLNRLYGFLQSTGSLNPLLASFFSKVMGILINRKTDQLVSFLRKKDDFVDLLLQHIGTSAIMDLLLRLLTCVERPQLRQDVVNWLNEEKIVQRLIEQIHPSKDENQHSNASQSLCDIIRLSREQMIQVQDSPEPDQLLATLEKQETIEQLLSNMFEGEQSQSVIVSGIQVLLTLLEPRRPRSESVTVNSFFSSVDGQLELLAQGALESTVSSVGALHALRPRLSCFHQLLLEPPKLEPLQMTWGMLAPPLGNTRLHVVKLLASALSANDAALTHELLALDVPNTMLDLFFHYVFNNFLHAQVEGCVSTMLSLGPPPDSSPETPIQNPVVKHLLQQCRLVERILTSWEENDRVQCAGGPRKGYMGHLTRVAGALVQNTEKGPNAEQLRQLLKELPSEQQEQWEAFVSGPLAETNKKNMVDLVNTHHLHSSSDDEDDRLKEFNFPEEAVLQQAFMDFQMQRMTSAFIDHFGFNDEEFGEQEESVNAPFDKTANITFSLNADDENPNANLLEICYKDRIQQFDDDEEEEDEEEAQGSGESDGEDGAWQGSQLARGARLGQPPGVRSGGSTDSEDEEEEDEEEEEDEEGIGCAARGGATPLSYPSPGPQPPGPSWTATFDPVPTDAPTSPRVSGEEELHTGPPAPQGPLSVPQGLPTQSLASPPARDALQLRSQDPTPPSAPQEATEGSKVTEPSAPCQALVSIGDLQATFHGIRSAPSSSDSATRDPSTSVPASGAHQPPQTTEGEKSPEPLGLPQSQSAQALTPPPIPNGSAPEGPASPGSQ
Chain of PP6 holoenzyme (O15084 whole entry partner): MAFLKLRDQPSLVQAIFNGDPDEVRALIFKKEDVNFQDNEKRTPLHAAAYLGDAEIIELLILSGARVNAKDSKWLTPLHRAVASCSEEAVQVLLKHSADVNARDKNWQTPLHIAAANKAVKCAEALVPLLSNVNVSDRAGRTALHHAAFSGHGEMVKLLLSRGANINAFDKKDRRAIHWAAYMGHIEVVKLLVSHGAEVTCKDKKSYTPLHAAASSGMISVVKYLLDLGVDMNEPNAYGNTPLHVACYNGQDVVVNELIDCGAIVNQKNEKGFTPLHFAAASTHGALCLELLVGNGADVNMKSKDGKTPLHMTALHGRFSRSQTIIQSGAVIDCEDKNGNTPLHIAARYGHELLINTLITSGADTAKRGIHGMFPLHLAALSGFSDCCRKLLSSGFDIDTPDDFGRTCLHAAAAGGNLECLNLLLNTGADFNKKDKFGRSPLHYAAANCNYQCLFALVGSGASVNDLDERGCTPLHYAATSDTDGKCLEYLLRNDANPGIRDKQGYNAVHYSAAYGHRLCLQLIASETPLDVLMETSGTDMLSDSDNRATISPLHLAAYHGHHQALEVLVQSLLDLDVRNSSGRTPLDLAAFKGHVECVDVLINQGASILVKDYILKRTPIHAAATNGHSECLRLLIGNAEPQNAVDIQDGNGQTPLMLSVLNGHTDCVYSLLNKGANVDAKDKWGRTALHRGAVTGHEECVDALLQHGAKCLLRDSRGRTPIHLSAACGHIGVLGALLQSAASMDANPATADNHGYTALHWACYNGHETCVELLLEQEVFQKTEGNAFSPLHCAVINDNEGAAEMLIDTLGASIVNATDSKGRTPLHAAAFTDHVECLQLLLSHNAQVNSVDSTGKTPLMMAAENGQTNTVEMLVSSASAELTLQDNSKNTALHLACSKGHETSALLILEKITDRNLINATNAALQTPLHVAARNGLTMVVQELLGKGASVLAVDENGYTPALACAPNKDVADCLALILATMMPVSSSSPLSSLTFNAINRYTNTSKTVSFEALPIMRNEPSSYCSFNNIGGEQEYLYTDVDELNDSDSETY

Chain of PP4 holoenzyme (P60510 2-307): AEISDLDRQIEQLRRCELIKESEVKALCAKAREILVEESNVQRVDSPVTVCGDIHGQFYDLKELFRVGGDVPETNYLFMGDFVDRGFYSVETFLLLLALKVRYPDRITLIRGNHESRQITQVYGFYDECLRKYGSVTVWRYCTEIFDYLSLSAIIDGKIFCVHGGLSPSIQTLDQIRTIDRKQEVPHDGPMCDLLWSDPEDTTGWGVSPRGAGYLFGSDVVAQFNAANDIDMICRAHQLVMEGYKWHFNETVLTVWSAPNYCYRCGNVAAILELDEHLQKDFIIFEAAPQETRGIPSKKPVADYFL
Chain of PP4 holoenzyme (Q9NY27 whole entry partner): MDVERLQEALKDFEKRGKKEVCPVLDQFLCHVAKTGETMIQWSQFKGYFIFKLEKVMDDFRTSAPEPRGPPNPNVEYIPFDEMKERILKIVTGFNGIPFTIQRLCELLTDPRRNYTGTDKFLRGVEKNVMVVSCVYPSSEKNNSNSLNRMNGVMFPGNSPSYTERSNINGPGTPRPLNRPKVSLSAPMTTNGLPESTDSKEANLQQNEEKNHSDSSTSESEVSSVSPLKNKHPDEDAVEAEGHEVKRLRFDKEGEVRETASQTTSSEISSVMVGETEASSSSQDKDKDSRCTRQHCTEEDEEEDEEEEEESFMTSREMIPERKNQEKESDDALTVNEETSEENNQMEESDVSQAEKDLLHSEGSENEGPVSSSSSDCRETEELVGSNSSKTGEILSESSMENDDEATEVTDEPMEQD
Chain of PP4 holoenzyme (Q6IN85 whole entry partner): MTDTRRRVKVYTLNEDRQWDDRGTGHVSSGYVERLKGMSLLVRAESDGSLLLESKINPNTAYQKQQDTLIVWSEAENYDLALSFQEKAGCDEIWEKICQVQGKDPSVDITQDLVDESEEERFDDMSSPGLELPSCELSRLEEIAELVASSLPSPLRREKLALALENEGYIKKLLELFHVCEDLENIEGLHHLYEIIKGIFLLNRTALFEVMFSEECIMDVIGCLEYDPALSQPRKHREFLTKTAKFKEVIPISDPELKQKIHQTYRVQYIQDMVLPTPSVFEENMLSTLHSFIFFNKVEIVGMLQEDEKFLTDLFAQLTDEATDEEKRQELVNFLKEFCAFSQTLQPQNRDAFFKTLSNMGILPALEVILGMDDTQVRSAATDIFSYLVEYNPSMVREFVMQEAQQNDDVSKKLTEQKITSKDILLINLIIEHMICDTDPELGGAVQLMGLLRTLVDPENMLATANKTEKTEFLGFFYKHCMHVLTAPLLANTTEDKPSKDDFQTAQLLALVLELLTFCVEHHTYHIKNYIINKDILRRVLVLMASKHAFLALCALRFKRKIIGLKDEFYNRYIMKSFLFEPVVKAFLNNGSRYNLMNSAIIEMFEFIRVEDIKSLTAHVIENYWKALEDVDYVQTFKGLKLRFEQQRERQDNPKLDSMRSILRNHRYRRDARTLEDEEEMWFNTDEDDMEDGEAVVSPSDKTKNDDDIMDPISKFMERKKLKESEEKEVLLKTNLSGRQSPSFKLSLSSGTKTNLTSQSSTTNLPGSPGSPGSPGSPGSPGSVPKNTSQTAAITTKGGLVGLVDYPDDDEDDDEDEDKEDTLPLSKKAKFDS

Cc1cc(=O)oc2c(F)c(OP(=O)(O)O)c(F)cc12 [DiFMUP]
fluorescence dephosphorylation assay (PP4 holoenzyme): mixing purified PP4 and PP6 holoenzymes | fluorescence dephosphorylation assay (PP6 holoenzyme): DiFMUP dephosphorylation assay measuring the activity of purified PP6 holoenzyme

Source: publication PMC11844454 (bioRxiv, 2025)
